Literature values in patent publication US9376364B2, “Acid/salt separation” (PURAC BIOCHEM B.V., priority 2011, dated 2016).

Settings: at 20 Celsius

[Cl-].[Cl-].[Mg+2] [MgCl2, magnesium chloride]
saturation point of MgCl2 in water: 55 g/100 g water
